Laboratory results: PubChem BioAssay AID248 (DTP/NCI, 2004)
Values joined by “and” are separate entries in the source; they are usually repeats but may differ in a detail not shown here. Equal values may be shown once. Toxic doses and inconclusive results are not listed. No stated cut-off is given here; in the data, active means T/C of 150% or more; inactive means T/C below 125%.

System: L1210 leukemia ip in BDF1 mice, survival T/C
Test: NCI In Vivo Anticancer Drug Screen. Data for tumor model L1210 Leukemia (intraperitoneal) in B6D2F1 (BDF1) mice
Settings: endpoint: mean survival time, higher = longer survival
Summary of the method: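 Value reflects the ratio of survival in compound-treated mice to survival in vehicle-treated controls, with both groups carrying the same transplanted tumor.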

[1] = dose: 100.0 mg/kg/injection, schedule: Q01DX001 (ip), vehicle: Klucel (hydroxypropylcellulose) (HPC)
[2] = dose: 100.0 mg/kg/injection, schedule: Q01DX009 (ip), vehicle: Klucel (hydroxypropylcellulose) (HPC)
[3] = dose: 100.0 mg/kg/injection, schedule: Q04DX002 (ip), vehicle: Klucel (hydroxypropylcellulose) (HPC)
[4] = dose: 100.0 mg/kg/injection, schedule: Q04DX003 (ip), vehicle: Klucel (hydroxypropylcellulose) (HPC)
[5] = dose: 200.0 mg/kg/injection, schedule: Q01DX001 (ip), vehicle: Klucel (hydroxypropylcellulose) (HPC)
[6] = dose: 200.0 mg/kg/injection, schedule: Q01DX009 (ip), vehicle: Klucel (hydroxypropylcellulose) (HPC)
[7] = dose: 200.0 mg/kg/injection, schedule: Q04DX002 (ip), vehicle: Klucel (hydroxypropylcellulose) (HPC)
[8] = dose: 200.0 mg/kg/injection, schedule: Q04DX003 (ip), vehicle: Klucel (hydroxypropylcellulose) (HPC)
[9] = dose: 400.0 mg/kg/injection, schedule: Q01DX001 (ip), vehicle: Klucel (hydroxypropylcellulose) (HPC)
[10] = dose: 400.0 mg/kg/injection, schedule: Q01DX009 (ip), vehicle: Klucel (hydroxypropylcellulose) (HPC)
[11] = dose: 400.0 mg/kg/injection, schedule: Q04DX002 (ip), vehicle: Klucel (hydroxypropylcellulose) (HPC)
[12] = dose: 400.0 mg/kg/injection, schedule: Q04DX003 (ip), vehicle: Klucel (hydroxypropylcellulose) (HPC)
[13] = dose: 50.0 mg/kg/injection, schedule: Q01DX009 (ip), vehicle: saline
[14] = dose: 100.0 mg/kg/injection, schedule: Q01DX009 (ip), vehicle: saline
[15] = dose: 100.0 mg/kg/injection, schedule: Q04DX003 (ip), vehicle: saline with Tween-80
[16] = dose: 200.0 mg/kg/injection, schedule: Q04DX003 (ip), vehicle: saline with Tween-80
[17] = dose: 400.0 mg/kg/injection, schedule: Q04DX003 (ip), vehicle: saline with Tween-80
[18] = dose: 200.0 mg/kg/injection, schedule: Q01DX009 (ip), vehicle: saline
[19] = dose: 100.0 mg/kg/injection, schedule: Q04DX003 (ip), vehicle: saline
[20] = dose: 200.0 mg/kg/injection, schedule: Q04DX003 (ip), vehicle: saline
[21] = dose: 400.0 mg/kg/injection, schedule: Q04DX003 (ip), vehicle: saline
[22] = dose: 100.0 mg/kg/injection, schedule: Q01DX001 (ip), vehicle: saline

Measured: T/C

CCOc1ccc(/C=N/NC(=O)c2ccccc2NC(=O)c2ccccc2Cl)cc1OC
inactive: [1] 93 % of control | [2] 97 % of control and 90 % of control | [3] 95 % of control and 103 % of control | [4] 92 % of control | [5] 98 % of control | [6] 90 % of control and 91 % of control | [7] 108 % of control and 92 % of control | [8] 97 % of control | [9] 93 % of control | [10] 94 % of control and 88 % of control | [11] 97 % of control and 92 % of control | [12] 92 % of control

CCCCC(/C=C1/CCCCC1=O)CC (stereo not drawn)
inactive: [2] 97 % of control | [4] 92 % of control | [6] 97 % of control | [8] 103 % of control | [12] 97 % of control

O=S(=O)(O)c1ccc(/C2=c3\cc/c([n-]3)=C(\c3ccc(S(=O)(=O)O)cc3)c3ccc([n-]3)/C(c3ccc(S(=O)(=O)O)cc3)=c3/cc/c([n-]3)=C(\c3ccc(S(=O)(=O)O)cc3)c3ccc2[n-]3)cc1.[Co]
inactive: [13] 97 % of control | [14] 113 % of control

Cc1ccc(S(=O)(=O)N(CC(=O)O)c2cccc(Cl)c2)cc1
inactive: [4] 91 % of control | [8] 96 % of control | [12] 100 % of control

NCCC1=NCCN1
inactive: [3] 100 % of control | [7] 104 % of control | [11] 104 % of control

CC1(C)CN=C(c2cccc([N+](=O)[O-])c2)O1
inactive: [2] 98 % of control | [6] 105 % of control | [10] 100 % of control

Cc1ccc2c(c1)C=CC(C#N)N2C(=O)OCc1ccccc1 (stereo not drawn)
inactive: [15] 95 % of control | [16] 97 % of control | [17] 94 % of control

CCCCc1ccc(C(=O)O)nc1.[Cu+2]
inactive: dose: 5.0 mg/kg/injection, schedule: Q01DX001 (ip), vehicle: saline 97 % of control | dose: 10.0 mg/kg/injection, schedule: Q01DX001 (ip), vehicle: saline 105 % of control | dose: 20.0 mg/kg/injection, schedule: Q01DX001 (ip), vehicle: saline 106 % of control

C=CCOP1(=O)OCC2OC(n3cnc4c(N)ncnc43)C(O)C2O1 (stereo not drawn)
inactive: [13] 98 % of control | dose: 100.0 mg/kg/injection, schedule: Q01DX005 (ip), vehicle: saline 100 % of control | [14] 89 % of control | dose: 200.0 mg/kg/injection, schedule: Q01DX005 (ip), vehicle: saline 92 % of control | [18] 97 % of control

NC(N)=N/N=C/C(=N/N=C(N)N)c1ccccc1
inactive: dose: 30.0 mg/kg/injection, schedule: Q01DX Z (oral), vehicle: carboxymethylcellulose (CMC) 108 % of control | dose: 60.0 mg/kg/injection, schedule: Q01DX Z (oral), vehicle: carboxymethylcellulose (CMC) 115 % of control | dose: 120.0 mg/kg/injection, schedule: Q01DX Z (oral), vehicle: carboxymethylcellulose (CMC) 105 % of control | dose: 240.0 mg/kg/injection, schedule: Q01DX Z (oral), vehicle: carboxymethylcellulose (CMC) 103 % of control

CC(C)=CCC(C#N)(CCN(C)C)c1cccc2ccccc12 (stereo not drawn)
inactive: dose: 25.0 mg/kg/injection, schedule: Q01DX009 (ip), vehicle: saline 98 % of control | [13] 101 % of control | [14] 94 % of control | [19] 98 % of control

OCC1CCCCC1Cc1ccc(F)c2ccccc12 (stereo not drawn)
inactive: [1] 98 % of control | [5] 93 % of control | [9] 102 % of control

O=C(Nc1ncn[nH]1)C(Cl)(Cl)Cl
inactive: dose: 100.0 mg/kg/injection, schedule: Q04DX003 (ip), vehicle: carboxymethylcellulose (CMC) 95 % of control | dose: 200.0 mg/kg/injection, schedule: Q04DX003 (ip), vehicle: carboxymethylcellulose (CMC) 100 % of control | dose: 400.0 mg/kg/injection, schedule: Q04DX003 (ip), vehicle: carboxymethylcellulose (CMC) 97 % of control

Cc1ccc(C(C)(C#N)Nc2ccccc2)cc1 (stereo not drawn)
inactive: [1] 88 % of control | [4] 105 % of control | [5] 91 % of control | [8] 95 % of control | [9] 92 % of control | [12] 105 % of control

CCC(C)C(C)(CO)CO (stereo not drawn)
inactive: dose: 100.0 mg/kg/injection, schedule: Q01DX009 (ip), vehicle: saline with Tween-80 102 % of control | [19] 90 % of control | dose: 200.0 mg/kg/injection, schedule: Q01DX009 (ip), vehicle: saline with Tween-80 88 % of control | [20] 93 % of control | dose: 400.0 mg/kg/injection, schedule: Q01DX009 (ip), vehicle: saline with Tween-80 89 % of control | [21] 97 % of control

Nc1nc(N)c2ncn(C3CC(O)C(CO)O3)c2n1 (stereo not drawn)
inactive: dose: 50.0 mg/kg/injection, schedule: Q01DX001 (ip), vehicle: saline 96 % of control | [22] 110 % of control | dose: 200.0 mg/kg/injection, schedule: Q01DX001 (ip), vehicle: saline 90 % of control | dose: 400.0 mg/kg/injection, schedule: Q01DX001 (ip), vehicle: saline 96 % of control

COc1ccc(C)cc1NC(=O)c1ccc(F)cc1
inactive: [2] 94 % of control | [6] 97 % of control | [10] 100 % of control

NC(=O)OCC(COC(N)=O)(c1ccccc1)c1ccccc1
inactive: dose: 45.0 mg/kg/injection, schedule: Q01DX001 (ip), vehicle: saline 101 % of control | dose: 67.0 mg/kg/injection, schedule: Q01DX001 (ip), vehicle: saline 95 % of control and 101 % of control | [22] 98 % of control | dose: 150.0 mg/kg/injection, schedule: Q01DX001 (ip), vehicle: saline 95 % of control and 104 % of control

COc1ccc(CN(CCO)C(C)=O)cc1
inactive: [14] 100 % of control | [19] 112 % of control | [18] 105 % of control | [20] 107 % of control | dose: 400.0 mg/kg/injection, schedule: Q01DX009 (ip), vehicle: saline 103 % of control | [21] 119 % of control

O=[N+]([O-])C1(CO)COC(c2ccccc2)OC1 (stereo not drawn)
inactive: dose: 100.0 mg/kg/injection, schedule: Q01DX009 (ip), vehicle: water 91 % of control | [15] 111 % of control | dose: 200.0 mg/kg/injection, schedule: Q01DX009 (ip), vehicle: water 98 % of control | [16] 108 % of control | dose: 400.0 mg/kg/injection, schedule: Q01DX009 (ip), vehicle: water 92 % of control | [17] 95 % of control
